This is an account of results in US8865672B2, “Prevention of tissue ischemia and related methods” (The United States of America, as represented by the …, priority 2006, dated 2014).

Ends that are not written are not given here. * marks the point of attachment. Biotin = O=C1N[C@H]2[C@H](CS[C@H]2CCCCC(=O)*)N1

The subject of assay [1] is vascular cell outgrowth from muscle explants. Briefly: Explant invasion assay in 3D collagen. The format is cell-based, mouse. As to conditions: wild type and TSP1 null explants, NO 10 μM, peptides 10 μM, NoC1 0.1 μg/ml, day 7. The procedure:
Muscle biopsies from the pectoralis major muscle of 8 to 12 week old wild type or transgenic mice were harvested and explanted into 100 μl of type I collagen gel in 96-well tissue culture plates as described (Isenberg et al., Matrix Biol 24:110-123, 2005). Following gelation, the embedded explants were overlayed with 75 μl of EGM+2% FCS in the presence or absence of a dose range of DETA/NO (0.01-1000 μM) and other indicated treatments and then incubated at 37° C. and 5% CO2 for 7 days, at which time maximum vascular cell migration through the matrix was measured.

A further assay relates to HUVEC. Briefly: NO-stimulated HUVEC adhesion on type I collagen. In kind it is cell-based, human. As to conditions: DEA/NO 10 μM. As for the experimental part:
Cell adhesion was carried out in 96-well culture plates. After pre-coating wells with type I collagen (3 μg/ml in DPBS) harvested cells were plated at a density of 1×10^4 cells/well in medium plus 0.1% BSA and treatment agents and incubated in 5% CO2 for 1 h. Wells were washed with PBS and cells fixed with 1% glutaraldehyde for 10 min., washed and stained with 1% crystal violet for 20 min. Excess stain was rinsed away, adherent cells treated with 10% acetic acid, and plates read at 570 nm.

Assay [2] concerns murine ASMC (WT, CD36 null, CD47 null). Briefly: Intracellular cGMP in murine ASMC. In kind it is cell-based, mouse. As for the experimental part:
Murine ASMC were obtained from aortic segments harvested sterilely from C57B1/6 CD47 null or CD36 null mice as described (Ray et al., Methods Cell Sci 23:185-188, 2001) and cultured in SM-GM (Cambrex)+20% FCS. In the case of CD36 null cells, culture flasks were pre-coated with 1% gelatin prior to cell plating. Wild type C57B1/6 ASMC cultures were prepared as previously described (Isenberg et al., Matrix Biol 24:110-123, 2005). Cell culture purity was determined by immunohistochemistry staining for α-smooth muscle actin. Cells were used within passage 1 to 4 to minimize overgrowth of other cell types.
HUVEC (10^4 cells/well) grown overnight in 96-well culture plates containing full growth medium with 2% FCS and weaned in growth medium without additives and 1% FCS over 24 hrs before treatment with NO donors and other agents in SM-GM without additives+0.1% BSA. Intracellular cGMP levels were determined according to the manufacturer's instructions using an enzyme immunoassay kit (Amersham Biosciences). In other experiments ASMC from wild type and CD36 or CD47 null mice were plated onto 96-well culture plates and incubated overnight in full growth medium. They were then weaned off serum as described to SM-GM+0.1% BSA and treated with NO donor and other agents as indicated. Intracellular cyclic nucleotides were determined via immunoassay.

In assay [3] the test system is human platelets. Briefly: Thrombin-induced human platelet aggregation. In kind it is cell-based. As to conditions: high shear. The procedure:
Platelets were pelleted from platelet-rich plasma (PRP) by centrifugation for 10 minutes at 200 g. They were then washed with acid citrate dextrose (ACD) (85 mM citric acid, 65 mM sodium citrate, 100 mM glucose, pH 5.1) at a ratio of 1:7 at room temperature. After pelleting the platelets again and removing the supernatant, the platelets were resuspended in 5 mL of Tyrode's buffer (137 mM NaCl, 3 mM KCl, 12 mM NaHCO3, 0.3 mM NaHPO4, 2 mM CaCl2, 1 mM MgCl2, 5.5 mM glucose, 5 mM HEPES, 3.5 mg/mL BSA, pH 7.4). The final platelet number was adjusted to […] in 500 μl/cuvette of Tyrode's buffer.
Aggregation of human platelets under high shear conditions was assessed using a standard optical aggregometer (Lumi-Dual Aggregometer, Chrono-Log Corp., Havertown, Pa.) at 37° C. and 1200 rpm in a volume of 500 μl buffer with a final platelet concentration of 2×10^5 platelets/μl over a 5 minute interval. Pre-incubation with TSP1 and TSP1-based agents was for 15 minutes prior to addition of thrombin and/or the rapidly releasing nitric oxide donor DEA/NO. In some experiments platelets were pre-incubated with the Rap1 inhibitor GGTI-298 (10 μM) (Calbiochem, La Jolla, Calif.) for 30 minutes prior to initiating aggregation. In other high shear aggregation experiments murine platelets were prepared as above with the following modifications. Mouse blood was collected by retro-orbital bleeding of anesthetized mice using heparinized tubes. PRP was prepared and then diluted with 4 vol. of Tyrodes containing 5 mM EDTA to prevent activation. After collection by centrifugation, platelets were resuspended in 2× initial PRP volume and held at room temperature for less than 1 hour before use. Aggregation conditions consisted of 250 μL of washed platelets stirred at 1200 rpm in a Chronolog Optical aggregometer at 37° C. DEA/NO (10 μM) was added 30 seconds prior to activation and 8-BrcGMP added 15 min prior to activation with 0.2 U/ml human thrombin. Data was collected using Chronolog “Aggrolink” software. Platelet aggregation under static conditions was assessed using a spectrophotometer (Beckman DU 640, Beckman Coulter, Fullerton, Calif.) and determined as a change in absorbance at 400 nm with continuous observation over a five minute interval. The cuvette was inverted once every 60 seconds. Pre-incubation with TSP1 and TSP1-based agents was for 15 minutes prior to addition of thrombin and/or DEA/NO to minimize the formation of thrombin-serpinthrombospondin complexes (Chang & Detwiler, Arch Biochem Biophys. 299:100-104, 1992), which interfere with thrombin-platelet interactions.
Fresh human platelets were suspended in Tyrode's buffer and under low shear conditions thrombin-stimulated aggregation measured as described. Platelets were then treated with peptide C6d (1 μM)±NO (10 μM DEA/NO) and thrombin and aggregation measure.

For assay [4], the system named is human platelets. Briefly: cGMP in human platelets. As to conditions: washed human platelets in Tyrode's buffer. In kind it is cell-based. The procedure: Fresh human platelets at 2×10^5 platelets/μl in Tyrode's buffer or PRP were pre-incubated with the indicated agents for 15 minutes and then challenged with DEA/NO for the indicated time interval at room temperature and total cGMP determined via immunoassay (Amersham, GE Healthcare, Buckinghamshire, UK). Murine WT and TSP1-null platelets were treated with DEA/NO and cGMP flux measured.

Another assay deals with NO/cGMP signaling. Briefly: cGMP signaling (NO-stimulated cGMP, immunoassay). As to conditions: concentration for 50% inhibition of effect. The format is cell-based, human. The procedure: Vascular cells (endothelial) or HT-1080 cells (10^4 cells/well) grown overnight in 12-well culture in SM-GM containing 2% FCS or RPMI+10% FCS respectively and then weaned off serum over 48 h before treatment with NO donors and other agents in serum/additive free medium+0.1% BSA. Intracellular cGMP levels were determined using an enzyme immunoassay (Amersham, GE Health Care, UK). In other experiments fresh washed human platelets were incubated in Tyrode's buffer and the indicated treatment agents±NO and cGMP determined.

In assay [5] the test system is VSMC and endothelial cells. Briefly: NO-stimulated adhesion of VSMC and endothelial cells to type I collagen (Example 9). The format is cell-based. As to conditions: 10 μM DEA/NO. The procedure: Vascular cells (VSMC or endothelial) were plated at 10,000 cells/well onto 96-well plates (Maxisorb, Nunc) precoated with type I collagen (3 μg/ml). […] Plates were then washed with PBS, fixed with glutaraldehyde, stained with crystal violet, and washed. Absorbed stain was solubilized with acetic acid from fixed cells and the resulting color signal determined on a MR580Microelisa Auto Reader, (Dynatech, Alexandria, Va.) at 450 nm wavelength.

Assay [6] relates to random myocutaneous flaps in mice. Briefly: Random myocutaneous (McFarlane) flap model. The format is in vivo, mouse. As to conditions: aged TSP1-null animals, agent in drinking water. The procedure: WT and TSP1 null mice were matched for sex and age. Under isoflurane inhalation anesthesia 1×2 cm random myocutaneous flaps were raised. Where indicated, animals received either L-NAME (0.5 mg/ml) or ISDN (1 mg/ml) ad libitum in drinking water during the post-operative period. On postoperative day 7, the animals were again anesthetized with inhalation isoflurane and flaps evaluated. Viable and necrotic areas of the flaps were determined by color, refill, eschar, and the pin-prick test. Outlines of viable and nonviable areas were traced using transparent film and the area of flap necrosis versus total flap area determined as described (Yu et al., Proc Natl Acad Sci USA 102:10999-11004, 2005).
Wild type, TSP1 null, CD36 null and CD47 null mice were matched for sex and age underwent random dorsal myocutaneous flaps as described (Isenberg et al., Blood 2006; Example 2) and tissue harvested on postoperative day 7.
The necrotic area of the flap was determined as described (Isenberg et al., Blood. Nov. 2, 2006) Animals were then euthanized and flaps excised, fixed in 10% paraformaldehyde and processed for histology.
Random myocutaneous flap wound beds and/or ischemic hindlimb vastus medialis muscle was assessed at indicated time points (72 hours or 7 days post-operatively) for visible alterations in vascularity under 5× magnification. An arbitrary though strictly applied definition of countable vessels was employed to highlight both individual vessels and vascular ramifications. In any given vascular plexus visible by 5× magnification a vessel was defined as that segment traversing two branches. Visible vessels without ramifications and branches were counted once. Treatment status and genetic background of tissue images was not known by the reviewer.
Animals underwent creation of a random myocutaneous (McFarlane) flap as previously described (Isenberg et al., Blood 109:1945-1952, 2007). Some animals received either ISDN (1 mg/mL) or L-NAME (0.5 mg/ml) ad libitum in the drinking water during the post-operative interval.
Flap soft tissue units and underling wound beds were injected with control vehicle (normal saline), a CD47 morpholino or a control morpholino (10 μM) in sterile saline. Flap survival was determined as described.

In assay [7] the test system is full thickness skin grafts in mice. Briefly: Full thickness skin graft (FTSG) model. As to conditions: TSP1-null grafts, agent in drinking water post-operatively. The format is in vivo, mouse. As for the experimental part:
Wild type, TSP1 null, CD47 null and CD36 null mice were matched for sex and age. Anesthesia was induced by and maintained with inhalation isoflurane. Body temperature was maintained at 37° C. with a heating pad during the procedure. The dorsal surface was clipped of hair and depilated with Nair®. The skin was then cleansed with surgical soap and alcohol and the animals draped. Using sterile technique, a 1×1 cm FTSG incorporating the panniculus carnosus, subcutaneous tissues and skin were raised. Graft dimensions were marked on the animal skin surface with the aid of a template to insure consistency in dimension. Grafts were in the midline of the animal and secured with four interrupted 5-0 nylon sutures. Sutures were so placed as to include the fascia of the dorsal musculature to provide increased immobilization of grafts to the underlying wound bed Animals were awakened and returned to individual cages and allowed ad libitum access to food and water. Trauma to FTSG was not encountered during the post-operative interval since grafts were located in the dorsal midline over the mid thoracic area and each animal was housed individually following surgery. On postoperative day three or seven, the animals were again anesthetized with inhalation isoflurane and skin graft survival evaluated.
The groups of animals utilized and the treatments received as indicated either at the time of skin grafting and/or during the post-operative interval are summarized in FIG. 21. Animals treated with ISDN (1 mg/ml) or L-NAME (0.5 mg/ml) had ad libitum access to drinking water containing the given concentrations of agents during the post-operative interval. Animals treated with a CD47 monoclonal antibody (Ab clone 301) or an isotype matched control antibody (Ig2α) underwent injection of 40 μg delivered as 10 μl of a 4 mg/ml stock in 100 μl of PBS with equal volumes injected between the wound bed and graft prior to suturing the graft in place. Animals treated with a CD47 morpholino oligonucleotide underwent injection of the FTSG and wound bed with 10 μmol/L in 250 μl of PBS with 125 μl volumes injected in the graft and wound bed, respectively prior to suturing the graft in place.
The necrotic areas of the FTSG were determined by color, refill, eschar, and the pin-prick test. The outlines of viable and nonviable areas were traced using transparent film, and the area of necrosis cut from the template and the area of skin graft necrosis versus total skin graft area determined by comparison of the original template weight to the weight of the cut template utilizing the method described by Ueda (Ueda et al., J Surg Res 80(2):200-204, 1998). Skin graft survival area was presented as the ration of graft survival on post-operative day three or seven divided by the original graft area multiplied by 100%. Additionally, digital images were then acquired using an Olympus C5500 digital camera at a fixed distance (20 cm perpendicular to the animal) under standard room lighting with autoflash and macro settings engaged and uploaded for image analysis of tissue survival with a standard software program (Image-Pro Plus, Media Cybernetics, Inc., Silver Spring, Md.). […]
Skin graft wound beds were assessed at indicated time points (72 hours or 7 days post-operatively) for visible alterations in vascularity under 5× magnification. […] Visible vessels without ramifications and branches were counted once. […]

In the case of FIRVVMYEGKK [7N3], the “NO-stimulated vascular cell outgrowth” value in [1] is listed as “inhibited vascular cell outgrowth”. For the same compound, in the assay with HUVEC, the “concentration of maximal inhibition of NO-stimulated endothelial cell adhesion” value was determined as 10 µM. Also, in the assay on HUVEC (1 h), the “NO-stimulated endothelial cell adhesion on type I collagen” value is “inhibited NO-stimulated endothelial cell adhesion”. For the same compound, the “NO-stimulated cGMP” value in assay [2] (CD36 null MASMC) was “completely inhibited”; in assay [2] (CD47 null MASMC) it was “did not significantly inhibit”. In addition, in the assay with human platelets [3], the “concentration sufficient to significantly inhibit the NO delay” value came to 10 nM. Further, the “NO delay of thrombin-induced platelet aggregation” value in the assay on human platelets [3] (thrombin 0.2 U/ml, DEA/NO 10 μM) is “blocked”. Moreover, the “NO stimulated cGMP in platelets” value in the assay on human platelets [4] was “partially inhibited”.
Take Biotin-IGWKGFTAYR [C6e]: in the assay with NO/cGMP signaling, the “cGMP signaling IC50” value is “inactive”. The “NO-stimulated adhesion to type I collagen” value in assay [5] was “not blocked”.
Taken in the same sequence, the figures for GAKDFTAYR [C6s] were “inactive” and “not blocked”.
Take `O=[N+]([O-])O[C@H]1CO[C@H]2[C@@H]1OC[C@H]2O[N+](=O)[O-]` [ISDN, Isosorbide dinitrate, reference compound]: in assay [6], the flap survival result is on record as “did not dramatically alter flap survival”. The FTSG survival entry in [7] is “not substantially altered”.
On to VTCGGGVQKRSRL [p245], for which the “NO-stimulated vascular cell outgrowth” value in assay [1] was “inhibited vascular cell outgrowth”.
